Reference: patent publication US11919854B2, “P2RX7 modulators in therapy” (Centre national de la recherche scientifique, priority 2018, dated 2024)

Assays:
[1] = tested on: DSS-induced colitis; experiment: DSS-induced colitis mouse model; assay type: in vivo, C57BL/6J mice
Experimental: (A) Body weight loss and (B) clinical scores from C57BL/6J treated with 3% DSS during 5 days (J1 to J5), followed by 10 days of normal tap water. The treated group received HEI2328 (ip, 2.3 mg/kg in PBS, 10% DMSO). Data are representative of 2 independent experiments (n=20). Mean±SEM are shown. *, p<0.05; **, p<0.01 (Mann-Whitney test).
The inflammatory index was scored in a longitudinal (A) and a transversal section of the colon (B). Data are representative of 2 independent experiments (n=20). Mean±SEM are shown. *, p<0.05; **, p<0.01 (Mann-Whitney test).
(A-D) Phenotypic analysis of immune cells in spleen of 20 mice treated with HEI2328 or non treated. Data are representative of 2 independent experiments (n=20). Mean±SEM are shown. *, p<0.05; **, p<0.01 (Mann-Whitney test).
All mice received dextran sulfate sodium (3% DSS, TbS consultancy) ad libitum from day 1 to 5 and returned to normal tap water for the following 10 days. Control mice (n=20) were injected daily intraperitoneally with placebo (PBS/10% DMSO), whereas treated mice received 2.3 mg/kg HEI2328 in PBS/10% DMSO. The inventors used the following semi-quantitative clinical score:
Body weight loss was scored as follows: 0, no loss; 1, loss <5%; 2, loss <10%; 3, loss <20%; and 4, loss >20%.
The scores for stool consistency were measured as 0, normal; 1, loose stools; 2, watery diarrhea; or 3, severe watery diarrhea.
Rectal bleeding was scored as 0, no blood; 1, presence of petechia; 2, stools with a trace of blood; or 3, bleeding.
Inflammation score was performed by trained pathologists. Briefly, the severity of inflammation (none, mild, moderate, severe), extent of inflammation (none, mucosa, mucosa, and submucosa, transmural), crypt damage (none, basal to 1/3, basal to 2/3, crypt loss, crypts, and epithelium loss), and percentage of tissue affected by inflammation (0, 25, 50, 75, and 100%) were scored.

[2] = target: T1, human P2RX7 (Homo sapiens, UniProt Q99572); experiment: Calcium influx and large cation permeation by FACS, 15 min, HEK cells with human P2RX7, increasing doses of HEI3090; assay type: cell-based; settings: increasing doses of HEI3090, 7.8 μM BzATP
T1 construct: expressed in transfected cells; host or cells: HEK cells
T1 sequence (Q99572 1-595): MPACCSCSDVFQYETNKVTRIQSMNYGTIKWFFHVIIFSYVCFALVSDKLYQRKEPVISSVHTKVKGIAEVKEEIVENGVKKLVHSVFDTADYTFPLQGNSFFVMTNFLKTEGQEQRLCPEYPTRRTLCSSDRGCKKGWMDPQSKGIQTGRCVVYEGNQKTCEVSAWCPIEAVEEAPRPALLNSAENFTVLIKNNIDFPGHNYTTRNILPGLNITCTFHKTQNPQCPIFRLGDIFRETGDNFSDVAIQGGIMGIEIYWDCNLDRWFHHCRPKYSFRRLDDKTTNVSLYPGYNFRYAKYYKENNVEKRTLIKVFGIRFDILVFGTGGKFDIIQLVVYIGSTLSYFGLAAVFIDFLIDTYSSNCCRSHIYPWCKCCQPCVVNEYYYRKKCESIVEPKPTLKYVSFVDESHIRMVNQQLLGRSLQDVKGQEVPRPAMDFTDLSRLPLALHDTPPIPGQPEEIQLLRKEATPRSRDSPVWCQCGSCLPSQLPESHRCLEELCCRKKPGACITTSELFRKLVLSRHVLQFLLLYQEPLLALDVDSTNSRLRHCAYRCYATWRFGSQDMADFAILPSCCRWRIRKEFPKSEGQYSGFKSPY
Experimental: Calcium influx (Fluo-AM positive cells) and large cation permeation (Topro3 positive cells) were assayed by FACS 15 min after stimulation of HEK cells transfected with the human P2RX7 that were treated with increasing doses of HEI3090 in the presence of 7.8 μM BzATP.
Complementary analyses were also performed to document the biological activity of HEI3090, the more soluble version of HEI2328, on both HEK cells expressing mouse P2RX7 (mP2RX7) (FIG. 14) or human P2RX7 (hP2RX7) (FIG. 15). BzATP or ATP stimulate channel activity, an event that occurred in the first minutes of P2RX7 stimulation. […] The same positive effect was observed on cells expressing human P2RX7 (FIG. 15).

SMILES | clinical score ([1]; 2.3 mg/kg ip daily) | recovery of original weight ([1]; 2.3 mg/kg ip daily) | proportion of inflammatory monocytes in spleen ([1]; CD11b+CD11c−Ly6c+Ly6g−CD3−NK1.1−B220−) | reduction of clinical signs compared with classical P2RX7 antagonists (literature) ([1]; comparison with published antagonist data) | inflammatory (histologic) index of colon ([1]; day 15, colon sections) | body weight loss ([1]; days 6 to 9, 2.3 mg/kg ip daily, 3% DSS days 1-5) | myeloid infiltrate in spleen ([1]; treated mice (28 in non treated)) [%] | lymphoid population in spleen ([1]; treated mice (67 in non treated)) [%] | Treg and Tγδ lymphocytes within lymphoid populations of spleen ([1]; treated vs non treated) | proportion of conventional DC (cDC) and plasmacytoid DC (pDC) in spleen ([1]; treated vs non treated) | increase of Ca influx (Fluo-AM positive cells) [2] [fold] | increase of large cation influx (Topro3 positive cells) [2] [fold]
O=C(NCc1ccc(Cl)cc1Cl)[C@@H]1CCC(=O)N1C(=O)Nc1ccc(Cl)c(Cl)c1 [HEI2328, (S)—N^2-(2,4-Dichlorobenzyl)-N^1-(3,4-dichlorophenyl)-5-oxopyrrolidine-1,2-dicarboxamide] | more healthy and recovered quicker than control mice | recovered their original weight after 15 days | statistically decreased | more efficient than classical P2RX7 antagonists | very low inflammatory index | lost statistically less weight than the control group | 17 | 76 | increased | did not modify |  | 
O=C(NCc1ccc(Cl)cc1Cl)[C@@H]1CCC(=O)N1C(=O)Nc1ccc(Cl)nc1 [HEI3090, (S)—N^1-(6-Chloropyridin-3-yl)-N^2-(2,4-dichlorobenzyl)-5-oxopyrrolidine-1,2-dicarboxamide] |  |  |  |  |  |  |  |  |  |  | 3 | 3
